The values below come from US20250127857A1, “A COMPOSITION COMPRISING IL-36 AND/OR IL-18 FOR USE IN TREATING OCULAR DISORDERS” (THE PROVOST, FELLOWS, FOUNDATION SCHOLARS, & THE OTHER …, priority 2021, published 2025).

Series [1] addresses T1, IL-18BP (Homo sapiens, UniProt O95998).
T1 sequence (O95998 31-194): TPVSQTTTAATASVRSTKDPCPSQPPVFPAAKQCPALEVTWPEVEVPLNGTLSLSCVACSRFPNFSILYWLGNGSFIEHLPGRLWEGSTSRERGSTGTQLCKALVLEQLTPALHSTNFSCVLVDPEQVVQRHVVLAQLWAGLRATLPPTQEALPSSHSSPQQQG
Conditions: 1:1 stoichiometry; used for free IL-18 calculation (Migliorini et al., 2010); read-out: dissociation constant (Kd) of the IL-18/IL-18BP complex; cited from earlier work.

The subject of series [2] is VEGF. Kind of series: Retinal VEGF ELISA in JR5558 mice. Format: in vivo, mouse. The note with it: JR5558 mice 3 weeks old, 100 μg/kg i.p. on 4 consecutive days, retinas isolated day 8. The procedure: (§1) FIG. 14 illustrates IL-18 can inhibit VEGF secretion in vivo and in vitro, wherein JR5558 mice at 3 weeks (A) were injected (i.p.) with saline (0 μg/kg) or IL-18 (100 μg/kg) on 4 consecutive days (day 1-4), wherein retinas were isolated on day 8 and VEGF concentration in protein lysates was determined using an appropriate ELISA, wherein data are presented as mean±SEM (n=4-5 animals per each treatment group) and expressed as pg of VEGF per mg of total retinal protein as measured by the BCA assay, *p<0.05 by one-way ANOVA with Tukey post test compared to saline controls; (B) is primary human foetal RPE (hfRPE) cells were treated with control medium (0 ng/ml) or a single dose of IL-18 (1000 ng/ml) for 1 to 72 hours, wherein VEGF concentration in the cell-free supernatants was measured at each time point, wherein rate of VEGF secretion was calculated from the slope of linear regression of VEGF concentration (pg/ml) against time (hours) (C), wherein data are presented as mean±SEM and represent a single experiment carried out in triplicate *p<0.05, ***p<0.001 by Student's t test compared to control at each time point;
(In general: An ELISA detects its analyte on a solid surface through an enzyme-linked reagent.)

The subject of series [3] is human ocular choroidal fibroblasts (HOCFs). Kind of series: LDH assay of HOCF cell death. Format: cell-based. Conditions: HOCFs, 10, 100 or 1000 ng/ml IL-18 over 48 h. Here is the method:
(§2) FIG. 20 illustrates IL-18 activates human ocular choroidal fibroblasts and inhibits VEGF secretion, wherein (A) is human ocular choroidal fibroblast (HOCFs) treated with IL-18 at increasing doses for 8 h, wherein cells were fixed and stained with antibody targeting intermediate filament vimentin (red), Hoechst (blue) and phalloidin (green); (B) is HOCFs treated with IL-18 (100 ng/ml) over 60 mins and immunoblotted for phospho-ERK and phospo-p65 with B-actin and GAPDH as controls; (C) is HOCFs treated with IL-18 (100 ng/ml) over 24 h as indicated, wherein cells were analysed for VEGF expression by qPCR (D) is HOCFs treated with 10, 100 or 1000 ng/ml of IL-18 as indicated over 48 h and cell death was analysed by LDH assay;

In series [4] the test system is laser induced CNV in WT mice. The series can be described thus: Mesenchymal cell infiltration/activation after laser induced CNV, 3 days. The series is classed as in vivo, mouse. Here is the method:
FIG. 22 illustrates increased mesenchymal cell infiltration/activation in animals injected with IL-18 intrperitoneally, wherein WT mice underwent laser induced CNV and were injected IP with IL-18 (100 ug/kg), wherein 3 days later eyes were enucleated, flatmounts were stained with F4/80, vimentin and isolectin and imaged by confocal microscopy;
FIG. 23 illustrates increased mesenchymal cell infiltration/activation in animals injected with IL-18 intra-vitreally, wherein WT mice underwent laser induced CNV and were injected intravitreally with IL-18 (0.3ng/eye), wherein 3 days later eyes were enucleated, flatmounts were stained with F4/80, vimentin and isolectin and imaged by confocal microscopy;

The subject of series [5] is VEGF. The series can be described thus: VEGF secretion by primary human foetal RPE (hfRPE) cells. The note with it: IL-18 1000 ng/ml, 1-72 hours. Format: cell-based. The procedure: as §1
Series [6] relates to HRMEC. The series can be described thus: Wound healing (scratch) assay in HRMEC, IL-18. The series is classed as cell-based, human. The note with it: for mean difference in wound closure vs no treatment (xdiff): IL-18, VEGF, bFGF each 50 ng/ml, closure expressed as % closure. The procedure:
FIG. 16 illustrates HRMEC migration in response to IL-18 and IL-1α stimulation, wherein confluent HRMEC monolayers were scratched with a pipette tip and treated with IL-18 (50 ng/ml) or IL-1α (10 ng/ml) along with bFGF (50 ng/ml) or VEGF (50 ng/ml) as positive controls, wherein images were taken immediately following scratch (0 hrs) and at 4, 8 and 24 hours following scratch, wherein images were analysed using ImageJ imaging software, wherein data are presented as mean±SEM of 6 separate experiments in triplicate, wherein data were analysed using 2way ANOVA with Dunnett's multiple comparison test. (*p<0.05, *p<0.01, ****p<0.0001);
Cells were seeded on to a 12-well plate and grown until they reached confluency. 24 hours prior to the scratch, culture medium was replaced with 0.5% Serum media without supplements for 24 hours to induce cell quiescence. Cell monolayers were scratched once down the centre of the well using a p200 pipette tip and washed once with warmed DPBS to remove debris then replaced with 0.5% serum supplemented media with experimental treatments. Images were acquired using an Olympus IX51 inverted microscope with Cell^A imaging software (Olympus). Images were taken at baseline immediately following scratch and at suitable timepoints for up to 24 (HRMECs) or 48 hours (BMVECs). The area within the scratch was quantified using ImageJ software, and each timepoint was normalised to its baseline and expressed as % closure.

Series [7] deals with HRMEC. The series can be described thus: MTS assay of HRMEC proliferation with VEGF and IL-18. Format: cell-based, human. Here is the method: FIG. 17 illustrates HRMEC proliferation in response to VEGF is enhanced with IL-18 pre-treatment, wherein HRMECs were treated with increasing concentrations of VEGF alone or with a 24 hour pre-treatment of IL-18 at 10, 100 or 1000 ng/ml, wherein increasing VEGF induced an increase in cell proliferation which was enhanced following IL-18 treatment;
Cell viability was assessed using the CellTiter 96 AQueous One Solution cell proliferation MTS assay (Promega) as per the manufacturer's instructions. Cell monolayers were treated for times indicated where treatment supplemented media was then removed and incubated with 20 μl of CellTiter 96 AQueous One Solution in 100 μl of complete growth medium in a humidified incubator at 37° C. with 5% CO2for 1-4 hours. The absorbance of each well was measured at 490 nm using a SynergyMX plate reader (Biotek, Gen5™).

In series [8] the test system is human ocular choroidal fibroblasts (HOCFs). Kind of series: Activation of human ocular choroidal fibroblasts (vimentin/phalloidin staining). Format: cell-based. Conditions: IL-18 increasing doses, 8 h. Here is the method: as §2

In the case of “IL-18: recombinant human IL-18 (SB-485232; GSK)”, the Kd in series [1] was 0.4 nM. For the same substance, the “VEGF levels in the retinas” value in series [2] was “significantly decreased”. In addition, the “HOCF death (LDH assay)” value in series [3] is “does not cause HOCF death and may enhance HOCF viability”. Moreover, the “vimentin staining at CNV lesion” value in series [4] (IL-18 0.3ng/eye intravitreally) is “driving vimentin positive cells to encapsulate the neovascular lesion”; in series [4] (IL-18 100 ug/kg intra-peritoneally), “increased vimentin”. The “VEGF concentration in cell-free supernatants” value in series [5] was “decreased VEGF concentration at (almost) all time points examined”. In addition, the “overall rate of VEGF secretion” value in series [5] is on record as “significantly slowed down the overall rate of VEGF secretion”. For the same substance, the “mean difference in wound closure vs no treatment (xdiff)” value was −0.99 in series [6] (8 hours post scratch) and −12.58 in series [6] (24 hours post scratch). Further, the “rate of wound closure” value in series [6] (IL-18 50 ng/ml, vs no treatment control) is given as “significantly increased the rate of wound closure”. For the same substance, in series [7], the “HRMEC proliferation, IL-18 alone” value is given as “able to enhance HRMEC proliferation”. Also, the “VEGF induced proliferation after IL-18 pre-treatment” value in series [7] (24 hour pre-treatment with IL-18 at 10, 100 or 1000 ng/ml) is “VEGF induced proliferation was increased”. The “HOCF activation / morphology” value in series [8] is listed as “activates HOCFs causing them to change morphology”.
